The subject of series [1] is Rat hepatocyte. Put plainly: Metabolic stability assay (rat hepatocyte Clint). The series is classed as in vitro ADME. The note with it: 1 μM compound, cryopreserved hepatocytes 1 million cells per mL. The gist of the method:
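Compound at 1 μM incubated with cryopreserved rat hepatocytes, 1 million cells/mL, sampled 0–120 min with acetonitrile quench and LC-MS/MS quantitation. CLint (μL/min/E6) derived from elimination rate constant and half-life of parent disappearance, scaled by cell concentration.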

The nature of series [2]: Metabolic stability assay (human microsomal Clint). The note with it: 1 mg/mL microsomes, 1 mM NADPH, 37° C.; for Human liver microsomal CLint: 1 μM compound; for microsomal CLint at 1 μM: human, pooled human liver microsomes, pH 7.4, 1 μM compound. The class given is in vitro ADME. The gist of the method:
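Compound (1 μM) incubated at 37 °C with pooled human liver microsomes (1 mg/mL) and 1 mM NADPH in 100 mM phosphate, pH 7.4. Samples quenched in acetonitrile at 0–30 min and analysed by LC-MS/MS for parent loss. CLint reported in μl/min/mg.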

A short description of series [3]: Brain-blood-barrier penetration assay (short oral absorption model, Kp,uu). The class given is in vivo. Conditions: male Han Wistar rats, oral 10 mg/kg in 1% methylcellulose, AUC(brain)/AUC(plasma)×(fu,brain/fu.plasma); for Kp uu: male, Han Wistar, rat, brain and plasma, po, 10 mg/kg. How it is done:
It is believed that Kp,uu, the relationship between concentrations of unbound drug in brain and in plasma, is the key to prediction of CNS action and should be the main parameter measured and optimized for in drug discovery (Di L et al., Journal of Medicinal Chemistry [2013], 56: 2-12).
In vitro plasma and brain binding assay was carried out by using equilibrium dialysis method with semi-permeable membrane. Plasma and diluted brain homogenate (1:4 with DPBS pH7.4) were spiked with 5 μM test compound (in triplicate) and dialyzed against equal volume of 150 μL 100 mM PBS buffer (pH7.4) at 37° C. for 18 hours in a slowly rotated plate. At the end of incubation, a 50 μL aliquot from the receiver side and a 5 μL from the donor chamber were taken. The 5 μL sample was further diluted with 45 μL of blank plasma or brain homogenate. Paired samples were matrix-matched with either buffer or blank plasma/brain homogenate and mixed for 2 min, and then precipitated with 150 μL cold acetonitrile with 100 ng/mL tolbutamide as internal standard. After centrifuging at 4000 rpm for 20 min, supernatant was diluted with 0.1% formic acid aqueous solution and analyzed for LC/MS/MS (API 4000, Applied Biosystems, Foster City). Unbound fraction (fu) of test compound in the brain homogenate and diluted plasma were calculated by the ratio of the buffer side response to the brain homogenate/plasma side response, and unbound fraction (fu,pl and fu,br) of test compound in non-diluted plasma and tissue were calculated from measured fu in homogenate and plasma with the following equation: fu,bl (fu,br)=(1/D)/[(1/fu−1)+1/D)]. D is dilution factor.
A Short oral absorption (SOA) model is an in-vivo screening model to identify brain penetration of a compound. Six male Han Wistar rats purchased from Beijing Vital River were orally dosed with the compound at 10 mg/kg in 1% methylcellulose At 0.5, 1, 2, 4, 7 and 16 hour post-dose, cerebral spinal fluid (CSF) was collected from cisterna magna. Plasma samples will be processed for plasma by centrifugation at approximately 4° C., 3,000 g within half an hour of collection. Plasma samples will be removed to a labeled tube and stored at −80 degree until analysis. Brain tissue was harvested and homogenized in 3× volume of 100 mM phosphate buffered saline (pH7.4). All samples were stored at ˜−70° C. prior to LC/MS/MS analysis.
Standards were prepared by spiking blank plasma, brain homogenate and artificial CSF covering 0.5 to 500 ng/mL. Homogenized brain tissue along with plasma samples were precipitated by adding 3-fold volume of cold acetonitrile containing internal standard (40 ng/mL Dexamethasone and 40 ng/mL Diclofenac), and 10 μL of CSF samples were precipitated with 100 μL of cold acetonitrile containing internal standard. After 2 min vortex and 5 min centrifugation at 14,000 rpm, supernatant was analyzed by LC/MS/MS (API 4000, Applied Biosystems, Foster City). Two sets of standard curves were run at the beginning and end of each batch from plasma sample analysis. For brain and CSF samples, one standard curve was analyzed along with test samples.
Total brain levels, expressed as brain/plasma ratio (Kp) were measured by AUCbrain/AUCplasma in rodents after oral administration. Free fraction of test compound in biological matrix was determined by in vitro plasma and brain binding assay. Kp,uu was calculated by the following equation: Kp,uu=AUC (brain)/AUC (plasma)×(fu,brain/fu.plasma).

Series [4] has as its system MDCKII-MDR1-BCRP cell monolayers. Put plainly: MDCKII-MDR1-BCRP efflux assay. The class given is in vitro ADME. The note with it: 5 μM compound, 120 min, HBSS pH 7.4. The gist of the method:
(§1)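 Bidirectional (A-B, B-A) transport of 5 μM compound across MDCKII-MDR1-BCRP monolayers in HBSS, 25 mM HEPES pH 7.4, ~37° C. for 120 min, triplicate; donor and receiver concentrations measured, monolayer integrity checked with Lucifer yellow. Papp and efflux ratio calculated.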

Series [5] addresses Full length human DNAPK protein (Homo sapiens, UniProt P78527). Put plainly: DNA-PK enzymatic assay (TR-FRET). The class given is biochemical. Conditions: 10 μM ATP, 1.6 μM peptide substrate. In general terms: TR-FRET usually uses a lanthanide donor and a delayed reading to cut background.
The test system of series [6] is MDR1, BCRP. Put plainly: MDCKII-MDR1-BCRP efflux assay. The note with it: dog, pH 7.4, 5 μM compound, HBSS pH 7.4, read-out: MDCK-Mdr1-BCRP efflux ratio. The series is classed as in vitro ADME. The gist of the method:
as §1

As for `Cc1cc2ncnn2cc1Nc1ncc2c(C)nn(C3CCCOCC3)c2n1` (single isomer, unassigned) [Example 34, 3-methyl-N-(7-methyl-[1,2,4]triazolo[1,5-a]pyridin-6-yl)-1-(oxepan-4-yl)-1H-pyrazolo[3,4-d]pyrimidin-6-amine], in series [1], the “Rat hepatocyte CLint (μl/min/10^−6 cells)” value (from here on “Rat hepatocyte CLint”) was found to be 12.7 μl/min/10^−6 cells. Further, the “Human liver microsomal CLint” value in series [2] amounted to 31.4 µL/min/mg. The Kp uu in series [3] came to 0.24. In addition, the MDCK-Mdr1-BCRP efflux ratio in series [4] is 3.5. Also, the IC50 – broadly, the concentration at which inhibition is half-maximal – in series [5] was 1.2 nM.
The corresponding values for `COC1CCC(n2nc(C)c3cnc(Nc4cn5ncnc5cc4C)nc32)C1` (single isomer, unassigned) [Example 110, 1-(3-methoxycyclopentyl)-3-methyl-N-(7-methyl-[1,2,4]triazolo[1,5-a]pyridin-6-yl)-1H-pyrazolo[3,4-d]pyrimidin-6-amine] are 17.4 μl/min/10^−6 cells, 64.8 µL/min/mg, 0.25, 1.7 and 1.8 nM.
With `COC1CCC(n2nc(C)c3cnc(Nc4cn5ncnc5cc4C)nc32)C1` (single isomer, unassigned) [Example 111, 1-(3-methoxycyclopentyl)-3-methyl-N-(7-methyl-[1,2,4]triazolo[1,5-a]pyridin-6-yl)-1H-pyrazolo[3,4-d]pyrimidin-6-amine], the “Rat hepatocyte CLint” value in series [1] is 17.0 μl/min/10^−6 cells. Also, the “Human liver microsomal CLint” value in series [2] was 68.5 µL/min/mg. The “Kp, uu (brain)” value in series [3] came out at 0.36. Besides, the MDCK-Mdr1-BCRP efflux ratio in series [4] was determined as 1.8. The compound further gave an IC50 in series [5] of 1.1 nM.
As to `Cc1cc2nccn2cc1Nc1ncc2c(n1)c(C1CCOCC1)nn2C` [Example 2, 1-methyl-N-(7-methylimidazo[1,2-a]pyridin-6-yl)-3-(tetrahydro-2H-pyran-4-yl)-1H-pyrazolo[4,3-d]pyrimidin-5-amine], the “Rat hepatocyte CLint” value in series [1] amounted to 3.0 μl/min/10^−6 cells. For the same compound, the microsomal CLint (usually a measure of how fast metabolising enzymes remove a compound, apart from limits set by blood flow) at 1 μM in series [2] is 12.7 µL/min/mg. The compound further showed a Kp uu in series [3] of 0.14. For the same compound, the efflux ratio at 120 min, 5 μM in series [6] was 3.3. Further, the IC50 in series [5] came out at 1.4 nM.
For `CO[C@H]1CC[C@H](c2nn(C)c3cnc(Nc4cn5ncnc5cc4C)nc32)CC1` [Example 7, 3-((1r,4r)-4-methoxycyclohexyl)-1-methyl-N-(7-methyl-[1,2,4]triazolo[1,5-a]pyridin-6-yl)-1H-pyrazolo[4,3-d]pyrimidin-5-amine] the same measures were 7.5 μl/min/10^−6 cells, 75.1 µL/min/mg, 0.1, 2.3 and 0.8 nM.
The corresponding values for `Cc1cc2ncnn2cc1Nc1ncc2c(C)nn(C3CCC(F)(F)CC3)c2n1` [Example 21, 1-(4,4-difluorocyclohexyl)-3-methyl-N-(7-methyl-[1,2,4]triazolo[1,5-a]pyridin-6-yl)-1H-pyrazolo[3,4-d]pyrimidin-6-amine] are 10.0 μl/min/10^−6 cells, 102 µL/min/mg, 0.08, 1.3 and 1.4 nM.
With `CO[C@H]1CC[C@H](n2nc(C)c3cnc(Nc4cn5ncnc5cc4C)nc32)CC1` [Example 24, 1-((1r,4r)-4-methoxycyclohexyl)-3-methyl-N-(7-methyl-[1,2,4]triazolo[1,5-a]pyridin-6-yl)-1H-pyrazolo[3,4-d]pyrimidin-6-amine], the “Rat hepatocyte CLint” value in series [1] was 5.5 μl/min/10^−6 cells. In series [2], the microsomal CLint at 1 μM stood at 72.3 µL/min/mg. In addition, the Kp uu in series [3] is 0.1. Also, the efflux ratio at 120 min, 5 μM in series [6] turned out to be 1.4. Also, half-maximal inhibition in series [5] (IC50) was put at 0.4 nM.
The corresponding values for `Cc1cc2ncnn2cc1Nc1ncc2c(C)nn([C@H]3C[C@H]4CC[C@@H](C3)O4)c2n1` [Example 106, 1-((1R,3r,5S)-8-oxabicyclo[3.2.1]octan-3-yl)-3-methyl-N-(7-methyl-[1,2,4]triazolo[1,5-a]pyridin-6-yl)-1H-pyrazolo[3,4-d]pyrimidin-6-amine] are 17.6 μl/min/10^−6 cells, 68.9 µL/min/mg, 0.19, 2.1 and 0.9 nM.
Regarding `Cc1cc2ncnn2cc1Nc1ncc2c(C)nn([C@@H]3C[C@H]4CC[C@@H](C3)O4)c2n1` [Example 107, 1-((1R,3s,5S)-8-oxabicyclo[3.2.1]octan-3-yl)-3-methyl-N-(7-methyl-[1,2,4]triazolo[1,5-a]pyridin-6-yl)-1H-pyrazolo[3,4-d]pyrimidin-6-amine], in series [1], the “Rat hepatocyte CLint” value came to 4.5 μl/min/10^−6 cells. Besides, in series [2], the intrinsic metabolic clearance (microsomal CLint) at 1 μM was 13.9 µL/min/mg. Besides, in series [3], the Kp uu amounted to 0.3. Further, the efflux ratio at 120 min, 5 μM in series [6] was 2.7. Besides, the IC50 in series [5] was found to be 1.3 nM.

(Values after patent US12630565B2, “DNA-dependent protein kinase inhibitor” (DIZAL (JIANGSU) PHARMACEUTICAL CO., LTD., priority 2019, dated 2026).)
